Assay results as given in US20260262643A1, “HERBICIDAL BENZOXAZINES” (FMC CORPORATION, priority 2022, published 2026).

Legend:
ragweed [1] = test: Test C preemergence; type: in vivo, Ambrosia artemisiifolia; details: 0 to 100 scale (0 no effect, 100 complete control)
Outline: (§1)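 Soil-applied (pre) and foliar (post, 1–2 leaf, 2–10 cm) sprays; surfactant-containing non-phytotoxic solvent vehicle; loam/sand substrate. Readout: visual % control at 10 d, greenhouse, versus untreated.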

rice = test: Test D flooded paddy test; type: in vivo, Oryza sativa; details: 250 g ai/ha, applied to paddy water, visual rating after 13 to 14 days, scale 0 to 100 (0 no effect, 100 complete control)
Outline: (§2)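 Visual ratings from 0, meaning no effect, to 100, meaning complete control, were assigned against untreated controls 13 to 14 days after compounds were added to the floodwater of pots kept 3 cm deep, with plants at the 2-leaf stage.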

ryegrass, Italian [2] = test: Test C postemergence; type: in vivo, Lolium multiflorum; details: 10 days
Outline: as §1

oat, wild [3] = test: Test C preemergence; type: in vivo, Avena fatua; details: 0 to 100 scale (0 no effect, 100 complete control)
Outline: as §1

kochia [4] = test: Test C preemergence; type: in vivo, Bassia scoparia; details: 0 to 100 scale (0 no effect, 100 complete control)
Outline: as §1

ducksalad = test: Test D flooded paddy test; type: in vivo, Heteranthera limosa; details: 250 g ai/ha, applied to paddy water, visual rating after 13 to 14 days, scale 0 to 100 (0 no effect, 100 complete control)
Outline: as §2

green foxtail [5] = test: Test C postemergence; type: in vivo, Setaria viridis; details: 10 days
Outline: as §1

soybean [6] = test: Test C postemergence; type: in vivo, Glycine max; details: 10 days
Outline: as §1

corn [7] = test: Test C postemergence; type: in vivo, Zea mays; details: 10 days
Outline: as §1

horseweed = test: Test C postemergence; type: in vivo, Erigeron canadensis; details: 10 days
Outline: as §1

pigweed, palmer [8] = test: Test C postemergence; type: in vivo, Amaranthus palmeri; details: 10 days
Outline: as §1

barnyardgrass [9] = test: Test D flooded paddy test; type: in vivo, Echinochloa crus-galli; details: 250 g ai/ha, applied to paddy water, visual rating after 13 to 14 days, scale 0 to 100 (0 no effect, 100 complete control)
Outline: as §2

barnyardgrass [10] = test: Test C preemergence; type: in vivo, Echinochloa crusgalli; details: 0 to 100 scale (0 no effect, 100 complete control)
Outline: as §1

sedge, umbrella = test: Test D flooded paddy test; type: in vivo, Cyperus difformis; details: 250 g ai/ha, applied to paddy water, visual rating after 13 to 14 days, scale 0 to 100 (0 no effect, 100 complete control)
Outline: as §2

ryegrass, Italian [11] = test: Test C preemergence; type: in vivo, Lolium multiflorum; details: 0 to 100 scale (0 no effect, 100 complete control)
Outline: as §1

soybean [12] = test: Test C preemergence; type: in vivo, Glycine max; details: 0 to 100 scale (0 no effect, 100 complete control)
Outline: as §1

oat, wild [13] = test: Test C postemergence; type: in vivo, Avena fatua; details: 10 days
Outline: as §1

blackgrass [14] = test: Test C postemergence; type: in vivo, Alopecurus myosuroides; details: 10 days
Outline: as §1

barnyardgrass [15] = test: Test C postemergence; type: in vivo, Echinochloa crusgalli; details: 10 days
Outline: as §1

wheat [16] = test: Test C preemergence; type: in vivo, Triticum aestivum; details: 0 to 100 scale (0 no effect, 100 complete control)
Outline: as §1

kochia [17] = test: Test C postemergence; type: in vivo, Bassia scoparia; details: 10 days
Outline: as §1

pigweed, palmer [18] = test: Test C preemergence; type: in vivo, Amaranthus palmeri; details: 0 to 100 scale (0 no effect, 100 complete control)
Outline: as §1

blackgrass [19] = test: Test C preemergence; type: in vivo, Alopecurus myosuroides; details: 0 to 100 scale (0 no effect, 100 complete control)
Outline: as §1

galium = test: Test C postemergence; type: in vivo, Galium aparine; details: 10 days
Outline: as §1

corn [20] = test: Test C preemergence; type: in vivo, Zea mays; details: 0 to 100 scale (0 no effect, 100 complete control)
Outline: as §1

green foxtail [21] = test: Test C preemergence; type: in vivo, Setaria viridis; details: 0 to 100 scale (0 no effect, 100 complete control)
Outline: as §1

ragweed [22] = test: Test C postemergence; type: in vivo, Ambrosia artemisiifolia; details: 10 days
Outline: as §1

wheat [23] = test: Test C postemergence; type: in vivo, Triticum aestivum; details: 10 days
Outline: as §1

[24] = Preemergence, 500 g ai/ha, visual rating after 10 days
[25] = Test C, preemergence, 125 g ai/ha
[26] = 125 g ai/ha, postemergence, 0 to 100 scale, 0 no effect, 100 complete control
[27] = Postemergence, 500 g ai/ha, visual 0 to 100 scale (0 no effect, 100 complete control)

C[C@H]1CN(C(=O)c2cc(-n3cnc(C4CC4)n3)cc3c2OCCO3)c2cccc(Cl)c2O1 [Compound 156]
Plant response rating, Ragweed (ragweed [1]; [24]): 90
Ragweed plant response rating (ragweed [1]; [25]): 70
Plant response rating, Rice (Flood) (rice): 25
Plant response rating, Ryegrass, Italian (ryegrass, Italian [2]; [26]): 50
Plant response rating, Ryegrass, Italian (ryegrass, Italian [2]; [27]): 90
Plant response rating, Oat, Wild (oat, wild [3]; [24]): 40
Oat, Wild plant response rating (oat, wild [3]; [25]): 20
Plant response rating, Kochia (kochia [4]; [24]): 100
Kochia plant response rating (kochia [4]; [25]): 80
Plant response rating, Ducksalad (Flood) (ducksalad): 65
Plant response rating, Foxtail, Green (green foxtail [5]; [26]): 90
Plant response rating, Foxtail, Green (green foxtail [5]; [27]): 90
Plant response rating, Soybean (soybean [6]; [26]): 100
Plant response rating, Soybean (soybean [6]; [27]): 100
Plant response rating, Corn (corn [7]; [26]): 30
Plant response rating, Corn (corn [7]; [27]): 50
Plant response rating, Horseweed (horseweed; [26]): 50
Plant response rating, Horseweed (horseweed; [27]): 60
Plant response rating, Pigweed, Palmer (pigweed, palmer [8]; [26]): 80
Plant response rating, Pigweed, Palmer (pigweed, palmer [8]; [27]): 100
Plant response rating, Barnyardgrass (Flood) (barnyardgrass [9]): 40
Barnyardgrass plant response rating (barnyardgrass [10]; 125 g ai/ha, preemergence): 70
Plant response rating, Barnyardgrass (barnyardgrass [10]; [24]): 90
Plant response rating, Sedge, Umbrella (Flood) (sedge, umbrella): 95
Plant response rating, Ryegrass, Italian (ryegrass, Italian [11]; [24]): 90
Ryegrass, Italian plant response rating (ryegrass, Italian [11]; [25]): 60
Plant response rating, Soybean (soybean [12]; [24]): 100
Soybean plant response rating (soybean [12]; [25]): 80
Plant response rating, Oat, Wild (oat, wild [13]; [26]): 20
Plant response rating, Oat, Wild (oat, wild [13]; [27]): 30
Plant response rating, Blackgrass (blackgrass [14]; [26]): 80
Plant response rating, Blackgrass (blackgrass [14]; [27]): 90
Plant response rating, Barnyardgrass (barnyardgrass [15]; [26]): 70
Plant response rating, Barnyardgrass (barnyardgrass [15]; [27]): 90
Plant response rating, Wheat (wheat [16]; [24]): 30
Wheat plant response rating (wheat [16]; [25]): 10
Plant response rating, Kochia (kochia [17]; [26]): 80
Plant response rating, Kochia (kochia [17]; [27]): 90
Plant response rating, Pigweed, Palmer (pigweed, palmer [18]; [24]): 100
Pigweed, Palmer plant response rating (pigweed, palmer [18]; [25]): 100
Plant response rating, Blackgrass (blackgrass [19]; [24]): 90
Blackgrass plant response rating (blackgrass [19]; [25]): 50
Plant response rating, Galium (galium; [26]): 100
Plant response rating, Galium (galium; [27]): 100
Plant response rating, Corn (corn [20]; [24]): 10
Corn plant response rating (corn [20]; [25]): 0
Plant response rating, Foxtail, Green (green foxtail [21]; [24]): 100
Foxtail, Green plant response rating (green foxtail [21]; [25]): 100
Plant response rating, Ragweed (ragweed [22]; [26]): 80
Plant response rating, Ragweed (ragweed [22]; [27]): 100
Plant response rating, Wheat (wheat [23]; [26]): 60
Plant response rating, Wheat (wheat [23]; [27]): 80
